Consider five compounds from patent publication US20010014357A1, “Citrus peel extract as inhibitor of ACYL coa-cholesterol-o-acyltransferase, inhibitor of macrophage-lipid complex accumulation on the arterial wall and preventive or treating agent for hepatic diseases” (priority 1997, published 2001).

Test [1] relates to macrophage-lipid complex accumulated on the arterial endothelium. In words: Analysis for fatty streak (macrophage-lipid complex) in the main artery of cholesterol-fed rabbits. The format is in vivo, New Zealand White rabbits. As to conditions: 1% cholesterol diet plus 0.1% flavonoid or 1 mg/kg Lovastatin; for area of macrophage-lipid complex accumulated on the arterial endothelium compared to the control group / M-L (macrophage-lipid) complex area: 6 weeks; for layer of macrophage-lipid complex observed on the arterial endothelium (FIGS. 1B-1D): control shows a thick layer; for M-L (macrophage-lipid) complex area: Oil Red O stained area as proportion of total arterial area, control group 35. An excerpt:
RC4 diet comprises 7.6% moisture, 22.8% crude protein, 2.8% crude fat, 8.8% crude ash, 14.4% crude cellulose and 43.6% soluble nitrogen-free substances. The rabbits were bred for 6 weeks while being allowed free access to the diets and water. The rabbits bred in (Step 1) were sacrificed and their chest were incised. The main artery was cut out therefrom in a length of about 5 cm downward from the site 1 cm above the aortic valve and the fat surrounding the main artery was removed. The main artery was incised in the middle along the longitudinal axis and pinned to a dish. The moist artery was photographed and, then, staining of fatty streak was carried out in accordance with the method of […]., et al.(J. Lab. Clin. […] A part of the incised main artery was washed three times by 2 min. with anhydrous propylene glycol and stained for 30 min. with a saturated solution of Oil Red O (ORO, Sigma Co.) dissolved in propylene glycol. Thereafter, the artery was washed twice by 3 min. with 85% propylene glycol to remove remaining staining solution and, then washed with physical saline. The artery was photographed and the photograph was traced. The area of stained region (fatty streak region) was determined with an image analyzer (LEICA, Q-600, Germany) and its proportion(%) to the total arterial area was calculated. On the other hand, the other part of the main artery was stained in accordance with hematoxylin-eosin (H&E) and Masson's trichrome staining methods and observed under a microscope to confirm whether the macrophage-lipid complexes were accumulated in the intima, internus, elastic lamina and media.

The test system of test [2] is hepatic cells (fatty liver). Kind of test: Histopathological observation of the livers of cholesterol-fed rabbits. As to conditions: 1% cholesterol diet plus 0.1% flavonoid or 1 mg/kg Lovastatin, eight weeks, H&E stain. The format is in vivo, New Zealand White rabbits.
Description: The same procedure as in (Step 1) was repeated except that 40 three-month-old New Zealand White rabbits (Yeonam Horticulture and Animal Husbandry College, Korea) each weighing about 2.5 to 2.6 kg were used in place of the rats, and the rabbits were fed for eight weeks with four different diets, i.e., RC4 diet containing 1% cholesterol (Control group); 1% cholesterol plus 1 mg/kg Lovastatin® (Comparative group); 1% cholesterol plus 0.1% hesperidin; and 1% cholesterol plus 0.1% naringin, respectively.
Thereafter, the livers were separated from the rabbits and the histopathological observations were carried out as follows.
The rabbits were anesthetized with an intramuscular injection of ketamine (75 mg/kg) and subjected to an abdominal incision. […] The fixed liver was washed sufficiently with water, dehydrated stepwise with 70%, 80%, 90% and 100% ethanol and, then, embedded in paraffin. The embedded liver was sectioned in 4 μm thickness with a microtome and stained with hematoxylin and eosin. The stained liver specimen was made transparent with xylene, mounted with permount, and then observed under a microscope to confirm the presence of lesions.
Test [3] is described as follows: Blood total cholesterol and triglyceride levels in cholesterol-fed rabbits. The format is in vivo, New Zealand White rabbits. As to conditions: 1% cholesterol diet plus 0.1% flavonoid or 1 mg/kg Lovastatin, 6 weeks. The protocol:
RC4 diet comprises 7.6% moisture, 22.8% crude protein, 2.8% crude fat, 8.8% crude ash, 14.4% crude cellulose and 43.6% soluble nitrogen-free substances. The rabbits were bred for 6 weeks while being allowed free access to the diets and water. Further, blood samples were taken from the rabbits and total cholesterol and triglyceride levels were determined in accordance with the same procedure in Example 5.

The nature of test [4]: Serum GOT, GPT and γGTP levels in men given oral naringin. The format is in vivo, human. The settings on record: person, oral 10 mg/kg daily, day 68. The protocol:
Naringin was orally administered to a person at a daily dose of 10 mg/kg for 68 days and serum GOT, GPT and γGTP levels were determined just before the administration (day 0), and 45 and 68 days after the administration (day 45 and day 68), respectively. Consequently, serum GOT- levels at day 45 and day 68 decreased by 17%, respectively, in comparison to that of day 0. Serum GPT levels at day 45 and day 68 decreased by 15% and 19%, respectively, in comparison to that of day 0. Further, serum γGTP levels at day 45 and day 68 decreased by 25% and 51%, respectively, in comparison to that of day 0.
On the other hand, naringin was orally administered to a person, who had drunk alcoholic beverages habitually in an amount of 100 cc per day, at a daily dose of 6 mg/kg for 30 days and serum γGTP level was determined just before the administration (day 0) and 30 days after the administration (day 30). Consequently, initial serum γGTP level at day 0 was 129 IU/l, while that of day 30 decreased to 69 IU/l which is within the normal range.

Test [5] can be described thus: Serum GOT and GPT levels in rats on a high-cholesterol diet. The settings on record: 1% cholesterol diet plus 0.02% naringin or citrus peel extract (0.04% hesperidin equivalent), six weeks. The format is in vivo, Sprague-Dawley rats. An excerpt:
30 four-week-old Sprague-Dawley rats (Taihan laboratory animal center, Korea) each weighing about 90 to 110 g were evenly divided into three dietary groups by a randomized block design. The rats of the three groups were fed with three different high-cholesterol diets, i.e., AIN-76 laboratory animal diet (ICN Biochemicals, Cleveland, Ohio, U.S.A.) containing 1% cholesterol(Control group), 1% cholesterol plus 0.02% naringin, and 1% cholesterol plus citrus peel extract prepared in Example 2(1) in an amount equivalent to 0.04% hesperidin, respectively.
The effect of administering naringin and citrus peel extract to rats on the function of the liver was examined as follows.
Blood samples were taken from the rats of the three dietary groups and serum GOT (glutamate-oxaloacetate transaminase) and GPT (glutamate-pyruvate transaminase) levels were determined in accordance with the method of Reitman and Frankel (Reitman, S. and J. S. Frankel, Am. J. Clin. Pathol., 28, 56 (1956)). GOT and GPT are synthesized in the liver and heart, and released into blood stream upon the damage of these organs. Accordingly, GOT and GPT are representative markers of the liver-function and high serum GOT and GPT levels mean severe damage of the liver.

Consider `CC[C@H](C)C(=O)O[C@H]1C[C@@H](C)C=C2C=C[C@H](C)[C@H](CC[C@@H]3C[C@@H](O)CC(=O)O3)[C@H]21` [Lovastatin, reference compound], for which, in test [1], the “area of macrophage-lipid complex accumulated on the arterial endothelium compared to the control group” value (from here on “area … compared to the control group”) is reported as “decreased significantly” and the “layer of macrophage-lipid complex observed on the arterial endothelium (FIGS. 1B-1D)” value (shortened to “layer”) is “no or very thin layers”. The “microscopic features of the hepatic cells (FIGS. 2B-2D)” value (“microscopic features” for short) in test [2] is “irregularly arranged and enlarged and a large amount of fat is deposited therein”.

Turning to `COc1ccc([C@@H]2CC(=O)c3c(O)cc(O)cc3O2)cc1O` [hesperetin], in test [1], the “area … compared to the control group” value is “decreased significantly” and the “M-L (macrophage-lipid) complex area” value was 13%. For the same compound, in test [3], the Total cholesterol was 1150 mg/dL and the Triglyceride worked out at 41 mg/dL.

As for `COc1ccc([C@@H]2CC(=O)c3c(O)cc(O[C@@H]4O[C@H](CO[C@@H]5O[C@@H](C)[C@H](O)[C@@H](O)[C@H]5O)[C@@H](O)[C@H](O)[C@H]4O)cc3O2)cc1O` [hesperidin], in test [1], the “area … compared to the control group” value was “decreased significantly”, the “M-L (macrophage-lipid) complex area” value came out at 13.5% and the “layer” value was “no or very thin layers”. In addition, the “microscopic features” value in test [2] was “normal and the deposition of fat is not observed”. For the same compound, in test [3], the Total cholesterol is 1130 mg/dL and the Triglyceride was 40 mg/dL.

For `O=C1C[C@@H](c2ccc(O)cc2)Oc2cc(O)cc(O)c21` [naringenin], the “area … compared to the control group” value in test [1] is “decreased significantly”.

As to `C[C@@H]1O[C@@H](O[C@H]2[C@H](Oc3cc(O)c4c(c3)O[C@H](c3ccc(O)cc3)CC4=O)O[C@H](CO)[C@@H](O)[C@@H]2O)[C@H](O)[C@H](O)[C@H]1O` [naringin], the “decrease of serum γGTP level in comparison to day 0” value in test [4] was found to be 51%. In test [5], the “serum GOT level, lower than that of the control group” value is recorded as “about 30%” and the “serum GPT level, lower than that of the control group” value is approximately 10%. Further, in test [1], the “area … compared to the control group” value is given as “decreased significantly” and the “layer” value is “no or very thin layers”. Also, the “microscopic features” value in test [2] is “normal and the deposition of fat is not observed”.
